# According to patent publication US9134313B2, “Method of detecting colorectal cancer of stages 0 to I” (Tokyo Metropolitan Organization For Medical Research, priority 2003, dated 2015):
# Test system: anti-DiAcSpm antibody Code No. NZW 2
# Test: Cross-reactivity of affinity-purified anti-DiAcSpm antibody with urinary DiAcSpm analogues
# Type: binding, rabbit
# Conditions: for Cross-reactivity (1)x(2) %: cross-reactivity multiplied by abundance in urine: interference on urinary DiAcSpm determination; for KiDiAcSpm/Ki"s"(%) (1): cross-reactivity of antibody NZW 2 with each polyamine, DiAcSpm = 100
# Description: The antibody of the invention has one or both of the following properties: (i) its cross-reactivity with N^1-AcSpd (which is present in urine as a DiAcSpm analogue in an amount about 30-times greater than DiAcSpm) is 0.1% or less; (ii) total interference on the measurement results caused by its cross-reaction with DiAcSpm analogues present in urine is 5% or less. The numerical value mentioned in (i) above is a value showing the nature of the antibody. The numerical value mentioned in (ii) above is a value obtained by multiplying cross-reactivity itself by the abundance of these analogues in urine; this value can be an indicator showing how much interference these analogues would give actually on the quantitative determination of DiAcSpm.
# Step-wise affinity purification was carried out to examine whether specific antibodies with sufficient purity applicable to a urinary DiAcSpm measuring system can be obtained. The affinity purification was carried out step-wise based on the method of Kawakita et al. (Hiramatsu, K. et al., J. Biochem., 124, 231-236 (1998)), using DiAcSpm column and DiSpd column prepared by derivatizing carboxy-Toyopearl with AcSpm and N8-AcSpd (FIG. 3).
# Further, the total interference on the measurement results caused by the cross-reaction of this antibody with DiAcSpm analogues present in urine was 2.9%; thus, cross-reactivity of 5% or less was achieved (FIG. 4, Table 3).
"KiDiAcSpm/Ki""s""(%) (1)",Structure (SMILES),Cross-reactivity (1)x(2) %,"KiDiAcSpm/Ki""s""(%) (1) (listed as N^1-AcSpd)"
0.418%,"CC(=O)NCCCNCCCCNCCCN [AcSpm, monoacetylspermine]",0.131%,–
100%,"CC(=O)NCCCNCCCCNCCCNC(C)=O [DiAcSpm, N^1,N^12-diacetylspermine]",100%,–
0.032%,"CC(=O)NCCCCNCCCNC(C)=O [DiAcSpd, N^1,N^8-diacetylspermidine]",0.094%,–

Structure (SMILES),"KiDiAcSpm/Ki""s""(%) (1)",Cross-reactivity (1)x(2) %,"KiDiAcSpm/Ki""s""(%) (1) (listed as N^1-AcSpd)"
"CC(=O)NCCCCNCCCN [N8-AcSpd, N^8-Ac-Spermidine]",0.001%,0.024%,–
"CC(=O)NCCCNCCCCN [N1-AcSpd, N^1-Ac-Spermidine]",0.100%,2.65%,≤ 0.1%
